Laboratory results reported in patent US6638951B1, “Benzamide derivatives and drugs containing the same” (Hokuriku Seiyaku Co., Ltd., priority 1999, dated 2003).
Where a name gives a salt, the structure may show the parent alone.

Tested on: male ferrets
Assay: Emetic action in ferrets
Assay type: in vivo
Conditions: 16 hours fasting, 10 mg/kg p.o., during 2 hours after administration, 8 tested ferrets per compound
Procedure: The tested compound of Example 5 was used as a methanesulfonic acid salt, and the following compounds disclosed in Japanese Patent Unexamined Publication No. 5-262724/1993 were used as reference compounds:
Each test compound dissolved in 10% aqueous dimethyl sulfoxide solution was administered to male ferrets, weighing 0.9 to 1.3 kg, and 16 hours fasting, and then the incidence of vomiting was observed during 2 hours after the administration.

| Structure (SMILES) | Number of ferrets showing vomiting |
| --- | --- |
| COc1cc(N)c(Cl)cc1C(=O)NC1CCN(CC(=O)OCC(C)C)CC1 [Example 4, Isobutyl 4-(4-amino-5-chloro-2-methoxybenzamido)-1-piperidineacetate] | 1 |
| COc1cc(N)c(Cl)cc1C(=O)NC1CCN(CC(=O)O)CC1.Cl [Reference compound 1, 4-(4-amino-5-chloro-2-methoxybenzamido)-1-piperidineacetic acid hydrochloride, reference compound] | 0 |
| CCCCCCOC(=O)CN1CCC(NC(=O)c2cc(Cl)c(N)cc2OC)CC1 [Example 7, n-Hexyl 4-(4-amino-5-chloro-2-methoxybenzamido)-1-piperidineacetate] | 1 |
| CCCCCOC(=O)CN1CCC(NC(=O)c2cc(Cl)c(N)cc2OC)CC1 [Example 5, n-Pentyl 4-(4-amino-5-chloro-2-methoxybenzamido)-1-piperidineacetate] | 0 |
| CCCOC(=O)CN1CCC(NC(=O)c2cc(Cl)c(N)cc2OC)CC1 [Example 2, n-Propyl 4-(4-amino-5-chloro-2-methoxybenzamido)-1-piperidineacetate] | 2 |
| CCOC(=O)CN1CCC(NC(=O)c2cc(Cl)c(N)cc2OC)CC1.Cl [Reference compound 2, Ethyl 4-(4-amino-5-chloro-2-methoxybenzamido)-1-piperidine-acetate hydrochloride, reference compound] | 8 |
| CCCCOC(=O)CN1CCC(NC(=O)c2cc(Cl)c(N)cc2OC)CC1 [Example 1, n-Butyl 4-(4-amino-5-chloro-2-methoxybenzamido)-1-piperidineacetate] | 0 |

Tested on: not given
Assay: not given
Conditions: not given

| melting point [°C] | Structure (SMILES) |
| --- | --- |
| 133 to 137 | CCCCCCOC(=O)CN1CCC(NC(=O)c2cc(Cl)c(N)cc2OC)CC1 (as salt: hydrochloride) [Example 7, n-Hexyl 4-(4-amino-5-chloro-2-methoxybenzamido)-1-piperidineacetate] |
| 207 to 208 | COc1cc(N)c(Cl)cc1C(=O)NC1CCN(CC(=O)OCC(C)C)CC1 (as salt: methanesulfonate) [Example 4, Isobutyl 4-(4-amino-5-chloro-2-methoxybenzamido)-1-piperidineacetate] |
| 199.5 to 201 | COc1cc(N)c(Cl)cc1C(=O)NC1CCN(CC(=O)OCCC(C)C)CC1 (as salt: methanesulfonate) [Example 6, Isopentyl 4-(4-amino-5-chloro-2-methoxybenzamido)-1-piperidineacetate] |
| 141 to 144 | CCCCOC(=O)CN1CCC(NC(=O)c2cc(Cl)c(N)cc2OC)CC1 (as salt: hydrochloride) [Example 8, n-Butyl 4-(4-amino-5-chloro-2-methoxybenzamido)-1-piperidineacetate] |
| 202.5 to 203 | CCCCCOC(=O)CN1CCC(NC(=O)c2cc(Cl)c(N)cc2OC)CC1 (as salt: methanesulfonate) [Example 5, n-Pentyl 4-(4-amino-5-chloro-2-methoxybenzamido)-1-piperidineacetate] |
| 209 to 210 | CCCOC(=O)CN1CCC(NC(=O)c2cc(Cl)c(N)cc2OC)CC1 (as salt: methanesulfonate) [Example 2, n-Propyl 4-(4-amino-5-chloro-2-methoxybenzamido)-1-piperidineacetate] |
| 125 to 130 | COc1cc(N)c(Cl)cc1C(=O)NC1CCN(CC(=O)OC(C)C)CC1 (as salt: hydrochloride) [Example 3, Isopropyl 4-(4-amino-5-chloro-2-methoxybenzamido)-1-piperidineacetate] |
| 111 to 112 | CCCCOC(=O)CN1CCC(NC(=O)c2cc(Cl)c(N)cc2OC)CC1 (as salt: methanesulfonate) [Example 9, n-Butyl 4-(4-amino-5-chloro-2-methoxybenzamido)-1-piperidineacetate] |
| 209 to 211.5 | CCCCOC(=O)CN1CCC(NC(=O)c2cc(Cl)c(N)cc2OC)CC1 (as salt: methanesulfonate) [Example 1, n-Butyl 4-(4-amino-5-chloro-2-methoxybenzamido)-1-piperidineacetate] |
